Data: ChEMBL document CHEMBL3734689, “Enzyme kinetics and inhibition of histone acetyltransferase KAT8” (Eur J Med Chem, 2015)

Target: T1, Histone acetyltransferase KAT8 (Homo sapiens, UniProt Q9H7Z6)
T1 sequence (Q9H7Z6 whole entry): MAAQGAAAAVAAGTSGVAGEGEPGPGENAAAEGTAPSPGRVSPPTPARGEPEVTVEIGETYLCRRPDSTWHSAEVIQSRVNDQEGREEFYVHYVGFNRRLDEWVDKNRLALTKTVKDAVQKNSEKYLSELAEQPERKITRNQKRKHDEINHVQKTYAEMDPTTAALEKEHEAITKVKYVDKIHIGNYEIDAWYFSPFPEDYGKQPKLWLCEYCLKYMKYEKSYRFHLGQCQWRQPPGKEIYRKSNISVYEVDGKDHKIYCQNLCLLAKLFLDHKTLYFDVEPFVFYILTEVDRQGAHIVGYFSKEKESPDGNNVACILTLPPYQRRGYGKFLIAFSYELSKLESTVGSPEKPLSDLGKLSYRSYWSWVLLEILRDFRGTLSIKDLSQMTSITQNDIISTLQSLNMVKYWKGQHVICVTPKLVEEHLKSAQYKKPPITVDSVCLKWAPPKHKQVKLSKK
Assay: Inhibition of recombinant N-terminal His6-tagged KAT8 (unknown origin) expressed in Escherichia Coli BL21 DE3 cells assessed as reduction of Co A level using histone H4 substrate after 15 mins by CPM fluorescence assay

Ki [µM] | SMILES
79 | CCCCCCCCCCCCCCCc1ccc(O)c(C(=O)O)c1
57 | CCCCCCCCCCc1ccc(O)c(C(=O)O)c1
157 | O=C(O)c1c(O)cccc1CCCCCCCCCCCO
37 | CCCCCCCCCCc1cccc(O)c1C(=O)O
